# Source: ChEMBL document CHEMBL4312036, “Antiproliferative activity and mode of action analysis of novel amino and amido substituted phenantrene and naphtho[2,1-b]thiophene derivatives” (Eur J Med Chem, 2020)
# Activity calls are given as the source filed them. The rule behind the calls is not given here.
# What was measured:
# CFPAC-1 = test: Antiproliferative activity against human CFPAC-1 cells incubated for 72 hrs by MTT assay; format: functional, cell-based; settings: CFPAC-1, 72 h
# HeLa [1] = test: cells; settings: Homo sapiens, 72 h
# Description: Antiproliferative activity against human HeLa cells incubated for 72 hrs by MTT assay
# A549 = test: Antiproliferative activity against human A549 cells incubated for 72 hrs by MTT assay; format: functional, cell-based; settings: A549, 72 h
# HFF = test: Cytotoxicity against HFF cells assessed as reduction in cell viability incubated for 72 hrs by MTT assay; format: cell-based; settings: Homo sapiens
# SW-620 = test: Antiproliferative activity against human SW620 cells incubated for 72 hrs by MTT assay; format: functional, cell-based; settings: SW-620, 72 h
# HepG2 [2] = test: cells; settings: Homo sapiens, HepG2, 72 h
# Description: Antiproliferative activity against human HepG2 cells incubated for 72 hrs by MTT assay
# HepG2 [3] = test: Downregulation of MEK1/2 protein level in human HepG2 cells at 2 times IC50 incubated for 72 hrs by Western blot analysis; format: functional, cell-based
# HeLa [4] = test: Downregulation of MEK1/2 protein level in human HeLa cells at 2 times IC50 incubated for 72 hrs by Western blot analysis; format: functional, cell-based
# HeLa [5] = test: Upregulation of HIF1 protein level in human HeLa cells at 2 times IC50 incubated for 72 hrs by Western blot analysis; format: functional, cell-based
# HeLa [6] = test: Upregulation of HIF1 protein level in human HeLa cells at 2 times IC50 incubated for 48 hrs by Western blot analysis; format: functional, cell-based
# HepG2 [7] = test: Upregulation of HIF1 protein level in human HepG2 cells at 2 times IC50 incubated for 72 hrs by Western blot analysis; format: functional, cell-based
# HeLa [8] = test: Downregulation of MEK1/2 protein level in human HeLa cells at 2 times IC50 incubated for 48 hrs by Western blot analysis; format: functional, cell-based
Compound,IC50 (CFPAC-1) [µM],IC50 (HeLa [1]) [µM],IC50 (A549) [µM],IC50 (HFF) [µM],IC50 (SW-620) [µM],IC50 (HepG2 [2]) [µM],Activity (HepG2 [3]),Activity (HeLa [4]),Activity (HeLa [5]),Activity (HeLa [6]),Activity (HepG2 [7]),Activity (HeLa [8])
N#Cc1cc2ccc(N3CCCCC3)cc2c2ccccc12,> 100,59.4,58.9,> 100,> 100,81.8,,,,,,
N#C/C(=C\c1ccc(C#N)cc1)c1cccs1,52.4,0.21,47.7,> 100,61.4,0.3,Active,Active,Active,Active,Active,
N#C/C(=C\c1ccc(F)cc1)c1cccs1,34.2,3.59,40.8,86.9,36.4,5.22,,,,,,
N#C/C(=C\c1ccc(C#N)cc1)c1ccccc1,6.7,0.33,8.39,6.07,9.18,0.52,Active,,Active,Active,Active,Active
N#Cc1cc2ccccc2c2ccsc12,55.6,29.9,50.4,84.6,70.3,54.3,,,,,,
CC(C)CNc1ccc2cc(C#N)c3sccc3c2c1,18.6,18.6,31,98.4,41.5,47.6,,,,,,
N#Cc1cc2ccc(F)cc2c2ccsc12,51,11.6,49.9,16.4,42.4,32.1,,,,,,
N#Cc1ccc2cc(C#N)c3ccccc3c2c1,8.2,0.65,3.3,1.78,6.8,10.8,,,,,,
N#Cc1cc2ccccc2c2ccccc12,80,30.3,72.4,> 100,> 100,48.8,,,,,,
N#C/C(=C\c1ccc(F)cc1)c1ccccc1,46.9,3.44,45.8,52.7,38.5,7.73,,,,,,
CC(C)CNc1ccc2cc(C#N)c3ccccc3c2c1,35.5,23.6,31.1,52.9,43.4,33.6,,,,,,
N#C/C(=C\c1ccccc1)c1ccccc1,88.2,48.9,64.6,93.7,> 100,81.5,,,,,,
CN(C)CCCNC(=O)c1ccc2cc(C(=O)NCCCN(C)C)c3sccc3c2c1,6.59,4.21,5.57,5.83,4.4,16.2,,,,,,
N#Cc1cc2ccc(F)cc2c2ccccc12,13.2,8.31,9.57,3.43,7.8,18.3,,,,,,
N#Cc1cc2ccc(N3CCCCC3)cc2c2ccsc12,25.7,32.2,61.3,62,64.1,62,,,,,,
CC(C)CNC(=O)c1ccc2cc(C(=O)NCC(C)C)c3sccc3c2c1,> 100,10.8,27.7,0.74,0.9,86.1,,,,,,
CN(C)CCCNC(=O)c1cc2ccccc2c2ccsc12,17.5,14.4,20.2,24,17.7,23.2,,,,,,
N#C/C(=C\c1ccccc1)c1cccs1,97.8,20,59,84.3,> 100,43.4,,,,,,
CC(C)CNC(=O)c1cc2ccccc2c2ccsc12,97.5,39.6,63.9,96.8,> 100,75.4,,,,,,
N#Cc1ccc2cc(C#N)c3sccc3c2c1,8.19,0.45,5.53,5.13,6.04,7.22,,,,,,
CC(C)CNC(=O)c1cc2ccccc2c2ccccc12,68.6,28.4,64.2,> 100,61.3,93.4,,,,,,
N#Cc1cc2ccc(N3CCNCC3)cc2c2ccccc12,6.19,3.33,5.49,23.8,4.62,19.4,,,,,,
N#Cc1cc2ccc(N3CCNCC3)cc2c2ccsc12,3.66,2.38,7.09,37.5,2.58,20.9,,,,,,
